Our source for the bioavailability values is ChEMBL document CHEMBL1137595, “Identification and optimisation of a series of substituted 5-(1H-pyrazol-3-yl)-thiophene-2-hydroxamic acids as potent histone deacetylase (HDAC) inhibitors” (Bioorg Med Chem Lett, 2007).

This series is described as follows: Oral bioavailability after oral dosing at 5 mg kg-1. The format is ADME, organism-based. Conditions: mouse, in vivo.

For the molecule `O=C(NO)c1ccc(-c2ccn(CCNCc3ccc4c(c3)OCO4)n2)s1`, the bioavailability was 10%.

Broadly, the bioavailability is dose-corrected exposure relative to a reference, in per cent. High values mean good availability, low ones poor availability.
